Reference: EP3839043A1, “SCREENING METHODS FOR COMPOUNDS MODULATING POLYAMINE TRANSPORT” (Katholieke Universiteit Leuven, priority 2019, dated 2021)
Marks after values point to notes of the source that are not given here.

Experiments:
Microsomal ATP13A2 = target: T1, Microsomal ATP13A2 (Homo sapiens, UniProt Q9NQ11); assay: ATPase assay (ADP-Glo Max), solubilized microsomes of SH-SY5Y cells overexpressing ATP13A2 WT; format: biochemical; conditions: for ATPase activity of ATP13A2 WT, screen for candidate substrates: 100 nM CaCl2, MnCl2, ZnCl2 or FeCl3, 100 µM SPD or SPM; for Vmax ± SEM: Microsomal ATP13A2; for ATPase activity of ATP13A2, dose-response: indicated doses, microsomes 5 µg
T1 construct: expressed in transfected cells; host or cells: SH-SY5Y human neuroblastoma cells, lentiviral transduction; microsomes solubilised with DDM
T1 sequence (Q9NQ11 1-1175 isoform Q9NQ11-3): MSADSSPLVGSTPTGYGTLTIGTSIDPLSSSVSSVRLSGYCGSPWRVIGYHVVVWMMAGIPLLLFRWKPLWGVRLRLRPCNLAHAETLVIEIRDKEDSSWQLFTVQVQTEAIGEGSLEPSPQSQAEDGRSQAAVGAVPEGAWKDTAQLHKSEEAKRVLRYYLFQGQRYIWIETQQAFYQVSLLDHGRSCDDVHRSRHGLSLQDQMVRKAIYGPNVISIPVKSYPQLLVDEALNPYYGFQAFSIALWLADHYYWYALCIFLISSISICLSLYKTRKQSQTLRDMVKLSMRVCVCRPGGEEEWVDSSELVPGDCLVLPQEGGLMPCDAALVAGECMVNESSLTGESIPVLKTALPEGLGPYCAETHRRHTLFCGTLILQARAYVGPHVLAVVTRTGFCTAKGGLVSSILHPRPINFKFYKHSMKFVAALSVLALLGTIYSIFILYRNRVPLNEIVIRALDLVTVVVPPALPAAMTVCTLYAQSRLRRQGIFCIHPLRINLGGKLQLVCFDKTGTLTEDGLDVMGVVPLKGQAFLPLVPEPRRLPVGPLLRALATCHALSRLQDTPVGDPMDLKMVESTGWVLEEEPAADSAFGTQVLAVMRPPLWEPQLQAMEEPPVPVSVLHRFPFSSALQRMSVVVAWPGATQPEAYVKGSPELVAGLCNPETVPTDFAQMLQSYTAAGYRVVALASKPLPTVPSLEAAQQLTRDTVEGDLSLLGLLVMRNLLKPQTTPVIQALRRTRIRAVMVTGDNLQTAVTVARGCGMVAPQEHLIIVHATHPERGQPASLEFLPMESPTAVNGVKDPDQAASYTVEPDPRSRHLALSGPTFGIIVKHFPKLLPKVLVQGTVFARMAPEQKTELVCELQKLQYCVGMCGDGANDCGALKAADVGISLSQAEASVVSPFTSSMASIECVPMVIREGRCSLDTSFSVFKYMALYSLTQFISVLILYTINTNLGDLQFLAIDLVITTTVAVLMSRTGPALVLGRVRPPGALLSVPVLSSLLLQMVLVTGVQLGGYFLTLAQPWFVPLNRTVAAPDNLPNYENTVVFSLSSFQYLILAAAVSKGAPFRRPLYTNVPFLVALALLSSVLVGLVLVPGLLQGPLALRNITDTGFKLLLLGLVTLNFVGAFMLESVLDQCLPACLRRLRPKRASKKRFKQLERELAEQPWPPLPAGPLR
Procedure: (§1) Membrane fractionation - Transduced SH-SY5Y cells were seeded in […] at a density of 6 x 10^6 cells per plate. 24 h later, the cells were harvested following trypsinization and brief centrifugation (300 x g, 5 min). Subcellular fractionation was performed by differential centrifugation. The microsomal protein concentration was measured using the bicinchoninic acid assay (Thermo Fischer Scientific, Pierce) according to the manufacturer's instructions.
ATPase assay - The ATPase activity of ATP13A2 was assessed using a commercially available luminescence assay (ADP-Glo Max assay, Promega) that monitors the production of ADP via luciferase activity. The reactions were performed for 30 min (37°C) in a final volume of 25 µl. […] The assay was started by the addition of 5 mM ATP and was terminated by adding 25 µl of ADP-Glo Reagent. The 96-well plate was then incubated for 40 min at room temperature, followed by the addition of 50 µl of ADP-Glo Max Detection Reagent. After 40 min, luminescence was detected using a FlexStation 3.0 system (Molecular Devices). Dose-response curves and n/Km/Vmax values were calculated using GraphPad Prism Software (GraphPad Software Inc.).

SH-SY5Y cells [1] = assay: MUH cytotoxicity assay; format: cell-based, human; conditions: increasing concentrations, 24 h
Procedure: MUH cytotoxicity assay - SH-SY5Y cells were seeded in 96-well plates (1 X 10^4 cells per well) and allowed to adhere overnight. The cells were subsequently treated with increasing doses of the indicated compounds for 24-48 h. Following exposure, the cells were washed with PBS and stained with 300 µg/ml MUH (prepared in DMSO, dissolved in PBS) for 30 min at 37°C.

cathepsin B (CTSB) = conditions: toxic SPM levels (10 µM, 4 h)
Procedure: (§2) Cathepsin activity assays - SH-SY5Y cells were seeded in 10 cm^2 plates (2 X 10^6 cells per plate) and allowed to adhere overnight prior to treatment with 10 µM SPM for 4 h at 37°C. For samples requiring acidic nanoparticle addition, 180 ng/ml nanoparticles were added 1 h prior to SPM addition. Next, the samples were harvested using TRYPLE and a brief centrifugation (300 x g; 5 min). CTSB (ab65300) and CTSD (ab65302) activities were assessed using commercially available kits (Abcam) according to the manufacturer's instructions. MFI were acquired using a FlexStation 3.0 multi-well plate reader (Molecular Devices).

cathepsin D (CTSD) = conditions: toxic SPM levels (10 µM, 4 h)
Procedure: as §2

SH-SY5Y cells [2] = conditions: KO and KO/D508N cells; 10 µM SPM, 4 h
Procedure: FITC-dextran based lysosomal pH - SH-SY5Y cells were seeded in 12-well plates (1.0 X 10^5 cells per well) and allowed to adhere overnight. Cells were exposed to 50 µg/ml FITC-dextran for 72 h. Samples were then washed, placed in fresh media and treated with SPM (10 µM) alone or in combination with acidic nanoparticles (180 ng/ml, 1 h pre-incubation) for 4 h. Samples were then collected by centrifugation (450 x g, 5 min) and washed in PBS. Cells were finally resuspended in 500 µl of PBS containing 1% BSA and FITC dual emission assessed by flow cytometry (excitation 488 nm, emission 530 (BL1) and 600 (BL2)) using an Attune NXT flow cytometer (Invitrogen). The emission (BL1/BL2) of all samples were compared to a standard curve, whereby signals were obtained from control cells resuspended in monensin (100 µM) containing Britton Robinson buffer with increasing pH (3.0-8.0).

D508N mutant = D508N mutant (Homo sapiens, UniProt Q9NQ11, D513N); conditions: 100 µM SPM
Procedure: as §1
ATPase assay - The ATPase activity of ATP13A2 was assessed using a commercially available luminescence assay (ADP-Glo Max assay, Promega) that monitors the production of ADP via luciferase activity. The reactions were performed for 30 min (37°C) in a final volume of 25 µl. The assay reaction mixture contained 50 mM MOPS-KOH (pH 7), 100 mM KCI, 11 mM MgCl2, 1 mM DTT, 195 µM DDM, various concentrations of the indicated compound, and either microsomes (5 µg) harvested from SH-SY5Y cells overexpressing ATP13A2 (WT or mutants) or purified ATP13A2 (0.5 µg). When purified ATP13A2 was used, we included 125 µM PA, 125 µM PI(3,5)P2 and 19.5 µM DDM in the reaction buffer. […] After 40 min, luminescence was detected using a FlexStation 3.0 system (Molecular Devices). Dose-response curves and n/Km/Vmax values were calculated using GraphPad Prism Software (GraphPad Software Inc.).

Sequence of D508N mutant (Q9NQ11 1-1175 isoform Q9NQ11-3 D508N): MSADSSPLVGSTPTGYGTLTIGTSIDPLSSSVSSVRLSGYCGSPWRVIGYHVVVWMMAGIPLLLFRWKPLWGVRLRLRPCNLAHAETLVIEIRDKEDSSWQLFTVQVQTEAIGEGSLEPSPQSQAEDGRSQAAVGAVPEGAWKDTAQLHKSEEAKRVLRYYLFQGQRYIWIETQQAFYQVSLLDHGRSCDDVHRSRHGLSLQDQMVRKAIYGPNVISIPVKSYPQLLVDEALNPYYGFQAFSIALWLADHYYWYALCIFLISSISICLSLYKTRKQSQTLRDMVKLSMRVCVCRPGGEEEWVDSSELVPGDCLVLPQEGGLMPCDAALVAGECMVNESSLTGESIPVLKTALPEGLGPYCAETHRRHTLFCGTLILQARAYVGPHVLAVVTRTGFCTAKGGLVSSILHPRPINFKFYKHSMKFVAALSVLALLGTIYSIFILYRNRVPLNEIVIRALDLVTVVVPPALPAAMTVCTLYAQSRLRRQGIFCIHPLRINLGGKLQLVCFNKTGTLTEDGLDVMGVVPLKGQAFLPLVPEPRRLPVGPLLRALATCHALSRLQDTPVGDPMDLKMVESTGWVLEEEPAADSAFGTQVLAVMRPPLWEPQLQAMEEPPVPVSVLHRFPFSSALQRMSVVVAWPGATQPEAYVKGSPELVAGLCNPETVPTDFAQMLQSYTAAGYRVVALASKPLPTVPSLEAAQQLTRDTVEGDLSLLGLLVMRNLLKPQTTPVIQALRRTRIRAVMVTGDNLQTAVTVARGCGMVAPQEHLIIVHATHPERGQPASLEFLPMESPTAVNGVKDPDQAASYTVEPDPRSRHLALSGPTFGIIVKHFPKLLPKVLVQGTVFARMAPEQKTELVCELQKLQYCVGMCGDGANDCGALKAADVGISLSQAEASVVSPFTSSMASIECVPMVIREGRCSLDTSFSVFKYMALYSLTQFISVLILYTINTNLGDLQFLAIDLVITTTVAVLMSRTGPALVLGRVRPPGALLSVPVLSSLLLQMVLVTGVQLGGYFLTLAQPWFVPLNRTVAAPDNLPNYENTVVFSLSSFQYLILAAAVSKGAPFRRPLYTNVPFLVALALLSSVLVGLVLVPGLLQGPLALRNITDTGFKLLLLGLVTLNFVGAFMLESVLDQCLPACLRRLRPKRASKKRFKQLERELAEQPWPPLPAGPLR

| Compound | ATPase activity of ATP13A2 WT, screen for candidate substrates (Microsomal ATP13A2) | Vmax ± SEM (Microsomal ATP13A2) | ATPase activity of ATP13A2, dose-response (Microsomal ATP13A2) | viability of control cells (SH-SY5Y cells [1]) | Hill coefficient of SPM-induced ATPase activity (Microsomal ATP13A2; microsomal ATP13A2 WT) | cathepsin B (CTSB) activity (cathepsin B (CTSB)) | cathepsin D (CTSD) activity (cathepsin D (CTSD)) | lysosomal pH (SH-SY5Y cells [2]) | ATPase activity of D508N mutant (D508N mutant) |
| --- | --- | --- | --- | --- | --- | --- | --- | --- | --- |
| NCCCCNCCCN [Spermidine, spermidine] | significantly stimulated ATPase activity | ∼ 106* nmol ADP/mg/min | stimulate ATPase activity in a concentration-dependent manner | reduced the viability | – | – | – | – | – |
| NCCCNCCCCNCCCN [Spermine, spermine] | significantly stimulated ATPase activity | 140 ± 6 nmol ADP/mg/min | stimulate ATPase activity in a concentration-dependent manner | reduced the viability | approaches one | increased | decreased | further increased | had no effect |
